In US20100069339A1, “NOVEL METHOD OF TREATMENT OF MALE SUB-FERTILITY” (BIOXELL S.P.A., priority 2006, published 2010):
“Also recorded” adds a separate entry of the source.

What was measured:
BPH cells = settings: cited from earlier work
human BPH cells = assay: Inhibition of IL-8 production in human BPH cells by vitamin D compounds; type: cell-based; settings: BPH cells stimulated with IL-17 10 ng/ml and interferon gamma 10 ng/ml; compounds at 1, 10 and 100 nM, 72 hours; ELISA
Experimental: Approximately 2000 human BPH cells were placed in wells of a standard 96 well plate and stimulated for 72 hours with IL-17 at 10 ng/ml and interferon gamma at 10 ng/ml and incubated with vitamin D compounds individually at concentrations of 1, 10 and 100 nM for 72 hours IL-8 production by the cells was measured by conventional two-site ELISA using human IL-8 ELISA set (BD Biosciences, San Diego, Calif.) according to the manufacturer's instructions.

IL-8 [1] = assay: Seminal IL-8 in CP/CPPS patients, randomized double-blind placebo controlled study; type: in vivo, human
Description: We conducted a randomized, double-blind placebo controlled study in 121 patients with CP/CPPS. The primary objective of the study was to evaluate the effect of Compound A(150 mcg/die) after three months of treatment on the NIH score, a score encompassing pain, quality of life and lower urinary tract symptoms. As a secondary endpoint, we measured IL8 in the semen at baseline and at the end of the treatment.

IL-8 [2] = assay: Sandwich ELISA re-evaluation of seminal plasma IL-8 in trial patients; type: in vivo, human; settings: 29 Compound A-treated vs 27 Placebo-treated patients, p=0.002
Description: (§1) A sandwich ELISA system was used to re-evaluate seminal plasma IL-8 level in 27 Placebo-treated and 29 Compound A—treated patients from the trial described in Biological Example 5 and to extend the analysis to other inflammatory mediators. Note that TIMP-1 is an inhibitor of an inflammatory marker.

CCL2/MCP-1 = assay: Sandwich ELISA of seminal plasma CCL2/MCP-1 in trial patients; type: in vivo, human; settings: CP/CPPS patients, treatment vs placebo
Description: as §1

[3] = system: matrix metalloproteinase MMP2; assay: Sandwich ELISA of seminal plasma MMP2 in trial patients; type: in vivo, human; settings: CP/CPPS patients, treatment vs placebo
Description: as §1

[4] = system: soluble pattern recognition receptor PTX3; assay: Sandwich ELISA of seminal plasma PTX3 in trial patients; type: in vivo, human; settings: CP/CPPS patients, treatment vs placebo
Description: as §1

[5] = system: tissue inhibitor of metalloproteinase TIM-1; assay: Sandwich ELISA of seminal plasma TIM-1 in trial patients; type: in vivo, human; settings: CP/CPPS patients, treatment vs placebo
Description: as §1

## C=C1CC[C@H](O)C/C1=C/C=C1\CCC[C@]2(C)[C@@H]([C@H](C)CCCC(C)C)CC[C@@H]12 [vitamin D3, 9,10-secocholesta-5,7,10(19)-trien-3B-ol]
BPH cells
  BPH cell proliferation: inhibited
BPH cells; keratinocyte growth factor (KGF) and insulin-like growth factor (IGF1)
  mitogenic activity of growth factors for BPH cells: counteracted

## C=C1/C(=C\C=C2/CCC[C@]3(C)C([C@@H](C)C/C=C/C(O)(CC)CC)=CC[C@@H]23)C[C@@H](O)C[C@@H]1F [Compound A, 1-alpha-fluoro-25-hydroxy-16,23E-diene-26,27-bishomo-20-epi-cholecalciferol]
Human BPH cells
  IL-8 production (IL-8 concentration): can lower IL-8 levels in vitro
IL-8 [1]; 150 mcg/die, after 12 weeks
  IL-8 levels in the semen vs. placebo: significantly reduce; also recorded: can lower seminal IL-8 levels in human patients
IL-8 [1]; 150 mcg/die, week 12
  Seminal IL-8, % Change vs Baseline Week 12, 25th perc.: −42.37%
  Seminal IL-8, % Change vs Baseline Week 12, 75th perc.: 1.05%
  Seminal IL-8, % Change vs Baseline Week 12, Max: 89.48%
  Seminal IL-8, % Change vs Baseline Week 12, Mean: −19.33%
  Seminal IL-8, % Change vs Baseline Week 12, Median: −19.17%
  Seminal IL-8, % Change vs Baseline Week 12, Min: −61.82%
  Seminal IL-8, Abs Change vs Baseline Week 12, 25th perc.: −723.00
  Seminal IL-8, Abs Change vs Baseline Week 12, 75th perc.: 12.50
  Seminal IL-8, Abs Change vs Baseline Week 12, Max: 604.00
  Seminal IL-8, Abs Change vs Baseline Week 12, Mean: −368.34
  Seminal IL-8, Abs Change vs Baseline Week 12, Median: −358.00
  Seminal IL-8, Abs Change vs Baseline Week 12, Min: −1264.00
  Seminal IL-8, Week 12, 25th perc.: 809.50
  Seminal IL-8, Week 12, 75th perc.: 1394.00
  Seminal IL-8, Week 12, Max: 2599.00
  Seminal IL-8, Week 12, Mean: 1172.57
  Seminal IL-8, Week 12, Median: 985.50
  Seminal IL-8, Week 12, Min: 386.00
IL-8 [1]; before treatment
  Seminal IL-8, Baseline, 25th perc.: 947.50
  Seminal IL-8, Baseline, 75th perc.: 1903.50
  Seminal IL-8, Baseline, Max: 3015.00
  Seminal IL-8, Baseline, Mean: 1486.43
  Seminal IL-8, Baseline, Median: 1376.50
  Seminal IL-8, Baseline, Min: 468.00
IL-8 [2]
  seminal plasma IL-8 levels compared to placebo: Significantly reduced
CCL2/MCP-1
  CCL2/MCP-1 level in seminal plasma: decreased
[3]
  MMP2 level in seminal plasma: decreased
[4]
  PTX3 level in seminal plasma: decreased
[5]
  TIM-1 level in seminal plasma: enhanced
